In PMC6934184, “Selective DNA-PKcs inhibition extends the therapeutic index of localized radiotherapy and chemotherapy” (The Journal of Clinical Investigation, 2019):

Target: T1, FLT1 (VEGFR1) (Homo sapiens, UniProt P17948)
T1 construct: purchased Thermo Fisher Scientific (Life Technologies) SelectScreen
Assay: SelectScreen Z'LYTE
Type: biochemical
Method in brief: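 Percent values come from Thermo SelectScreen profiling of NU5455, combining activity and binding assays. CSF1R was run in Z'LYTE format at Km app ATP, and CAMK1 in Adapta format with ATP listed at 10.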

T1 sequence (P17948 27-1338): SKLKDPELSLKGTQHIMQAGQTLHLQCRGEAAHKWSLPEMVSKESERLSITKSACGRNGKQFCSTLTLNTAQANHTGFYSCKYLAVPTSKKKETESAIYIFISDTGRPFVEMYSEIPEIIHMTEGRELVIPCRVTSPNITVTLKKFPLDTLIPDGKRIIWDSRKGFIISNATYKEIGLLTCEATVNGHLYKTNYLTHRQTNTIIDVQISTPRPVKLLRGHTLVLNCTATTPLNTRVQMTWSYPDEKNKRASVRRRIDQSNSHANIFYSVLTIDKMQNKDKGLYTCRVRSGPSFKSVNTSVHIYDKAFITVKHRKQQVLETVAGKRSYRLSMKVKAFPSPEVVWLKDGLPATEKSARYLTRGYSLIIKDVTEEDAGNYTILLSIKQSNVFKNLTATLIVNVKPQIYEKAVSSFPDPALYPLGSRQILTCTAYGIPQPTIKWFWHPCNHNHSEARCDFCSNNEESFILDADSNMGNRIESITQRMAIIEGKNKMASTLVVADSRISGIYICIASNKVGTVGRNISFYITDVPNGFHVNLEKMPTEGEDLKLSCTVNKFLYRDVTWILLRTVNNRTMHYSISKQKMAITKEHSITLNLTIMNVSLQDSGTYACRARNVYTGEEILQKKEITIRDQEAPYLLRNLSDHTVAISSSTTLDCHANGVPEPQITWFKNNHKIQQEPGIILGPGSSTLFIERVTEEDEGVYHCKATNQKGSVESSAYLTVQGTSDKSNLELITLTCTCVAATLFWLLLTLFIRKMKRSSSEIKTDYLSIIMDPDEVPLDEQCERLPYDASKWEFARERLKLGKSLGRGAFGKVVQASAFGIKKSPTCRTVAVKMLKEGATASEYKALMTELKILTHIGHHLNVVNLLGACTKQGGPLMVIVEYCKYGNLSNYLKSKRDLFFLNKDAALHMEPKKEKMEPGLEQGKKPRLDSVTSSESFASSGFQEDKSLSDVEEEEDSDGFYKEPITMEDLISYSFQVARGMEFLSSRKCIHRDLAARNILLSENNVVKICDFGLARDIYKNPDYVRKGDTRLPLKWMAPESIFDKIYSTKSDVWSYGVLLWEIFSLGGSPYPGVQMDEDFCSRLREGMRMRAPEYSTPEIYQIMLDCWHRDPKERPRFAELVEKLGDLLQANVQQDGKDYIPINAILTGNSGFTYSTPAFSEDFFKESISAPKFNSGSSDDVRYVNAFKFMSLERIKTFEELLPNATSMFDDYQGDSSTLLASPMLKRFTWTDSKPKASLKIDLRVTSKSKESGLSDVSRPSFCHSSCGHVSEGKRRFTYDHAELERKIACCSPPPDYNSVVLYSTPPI

SMILES: CN(C(=O)CN1CCOCC1)c1ccc2sc3c(-c4cccc5c(=O)cc(N6CC7CCC(C6)O7)oc45)cccc3c2c1 [NU5455]
- inhibition at 1 µM: 6.5%
